# Experimental data published in patent US11970493B2, “Autotaxin inhibitor compounds” (ILDONG PHARMACEUTICAL CO., LTD., priority 2020, dated 2024).
# Key:
# [1] = Mouse PK study (IV and PO); assay type: in vivo; conditions: male, C57BL/6, mouse, plasma, male C57BL/6 mice; for AUC(0-inf): IV 2 mg/kg and PO 10 mg/kg study; for bioavailability / Cmax: po, 10 mg/kg; for bioavailability: IV 2 mg/kg and PO 10 mg/kg, read-out: F % (bioavailability); for Cmax: PO group 10 mg/kg
# Procedure: This example describes the pharmacokinetic (PK) data obtained for various compounds of the present disclosure, from studies using mice. The following PK parameters were calculated: • Bioavailability (F %) were calculated using the linear/log trapezoidal rule • Peak plasma concentrations (Cmax (ng/mL)) were taken directly from the plasma concentration vs. time profiles for the PO group • Area under the curve e.g., the area under the concentration curve from time 0 to infinity (AUC0-inf(ng*h/mL)). Experimental Procedures
# After intravenous (IV) and oral (PO) administration at 2 mg/kg and 10 mg/kg to male C57BL/6 mice, respectively, the blood samples were collected at the designed sampling time points. All blood samples were transferred into pre-chilled commercial polyethylene microcentrifuge tubes containing K2-EDTA as an anticoagulant. Samples were processed for plasma by centrifugation. Plasma samples was transferred into polypropylene tubes pre-chilled on dry ice and then quickly frozen over dry ice and kept at −70±10° C. until LC-MS/MS analysis. Mice plasma samples were analyzed using qualified bioanalytical methods based on protein precipitation followed by LC-MS/MS analysis. Individual plasma concentration data of each compound was subjected to noncompartmental pharmacokinetic analysis using Phoenix WinNonlin™. Nominal doses were used for pharmacokinetic parameters calculation.
# [2] = tested on: LPA 18:2 level in mouse plasma; assay: In vitro LPA assay, reduction of LPA 18:2 level in mouse plasma (LC-MS/MS); assay type: biochemical; conditions: 2 hr at 37° C., LPA 18:2 reduction
# Procedure: (§1) Autotaxin (ATX) plays an important role in lysophosphatidic acid (LPA) signaling. An in vitro LPA assay was conducted to determine IC50 values of the test compounds on reduction of LPA 18:2 level in rat or mouse plasma. This example describes the assay data (IC50 value ranges) of exemplary compounds from LPA assays using mouse and rat plasma. Compound GPLG-1690 was assayed as a reference compound.
# (§2) The 10 mM DMSO stock solutions of test compounds and 4-fold serial dilutions of the test compounds were prepared at various concentrations. The diluted solutions of the compounds were diluted with 1×PBS (pH 7.5) buffer. 38 μL of rat or mouse plasma samples were mixed with 2 μL of the diluted solutions of the compounds or 2% DMSO solutions in 96-well plate (final 0.1% DMSO). After incubating for 2 hr at 37° C., 120 μL MeOH containing IS (250 ng/mL of LPA 17:0) was added to each well. Mixture was vortexed for 1 min, and then centrifuged for 30 min (4000 rpm, 4° C.). 100 μL supernatant was transferred to a 96-well plate containing 100 μL pure water and the plate was shaken for 10 min. 5 μL supernatant was injected into LC-MS/MS system. No calibration curve will be prepared for LPA 18:2 and all quantifications were performed based on peak area ratios (LPA 18:2/LPA 17:0). For each concentration of compound LPA data were expressed as percentage of reduction (% reduction) using the formula. 100−[((LPA ratio-LPA ratio in control sample after 0 hr incubation)/(LPA ratio in control sample after 2 hr incubation—LPA ratio in control sample after 0 hr incubation))*100]. Data
# [3] = tested on: LPA 18:2 level in rat plasma; assay: In vitro LPA assay, reduction of LPA 18:2 level in rat plasma (LC-MS/MS); assay type: biochemical; conditions: 2 hr at 37° C., LPA 18:2 reduction
# Procedure: as §1, §2
# hATX/ENPP2 = hATX/ENPP2 (Homo sapiens, UniProt Q13822); assay: hATX/ENPP2 biochemical assay using 16:0-LPC as substrate (Amplex Red/choline oxidase/HRP fluorescence); conditions: hENPP2 2.5 nM, LPC (16:0) substrate
# Method in brief: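 Enzyme preincubated with compounds 15 min at room temperature in 50 mM Tris-HCl pH 8.0, 140 mM NaCl, 5 mM CaCl2, 0.01% Triton X-100. Reaction started with 80 μM LPC (16:0) stock plus Amplex Red/choline oxidase/HRP mix; fluorescence (ex 530/em 590 nm) read kinetically. IC50 from slope between 60 and 70 min.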
Compound,AUC(0-inf) [1],bioavailability [1],Cmax [1],IC50 [2],IC50 [3],IC50 (hATX/ENPP2)
"CCc1nc2ccc(-c3ccc(N4CCN(C(=O)N5CC[C@@H](O)C5)CC4)nc3)cn2c1N(C)c1nc(-c2ccc(F)cc2)c(C#N)s1 [Compound 92, (R)-2-((2-ethyl-6-(6-(4-(3-hydroxypyrrolidine-1-carbonyl)piperazin-1-yl)pyridin-3-yl)imidazo[1,2-a]pyridin-3-yl)(methyl)amino)-4-(4-fluorophenyl)thiazole-5-carbonitrile]",22800 ng·h/mL,25%,4260 ng/mL,≤ 200 nM,200 to 800 nM,≤ 20 nM
"CCc1nc2ccc(-c3ccc(N4CCC(C(=O)N5CCCC5)CC4)nc3)cn2c1N(C)c1nc(-c2ccc(F)cc2)c(C#N)s1 [Compound 113, 2-((2-ethyl-6-(6-(4-(pyrrolidine-1-carbonyl)piperidin-1-yl)pyridin-3-yl)imidazo[1,2-a]pyridin-3-yl)(methyl)amino)-4-(4-fluorophenyl)thiazole-5-carbonitrile]",40500 ng·h/mL,44.7%,6530 ng/mL,> 800 nM,≤ 200 nM,≤ 20 nM
"CCc1nc2ccc(-c3ccc(N4CCC(C(=O)N5CC[C@@H](O)C5)CC4)nc3)cn2c1N(C)c1nc(-c2ccc(F)cc2)c(C#N)s1 [Compound 114, (R)-2-((2-ethyl-6-(6-(4-(3-hydroxypyrrolidine-1-carbonyl)piperidin-1-yl)pyridin-3-yl)imidazo[1,2-a]pyridin-3-yl)(methyl)amino)-4-(4-fluorophenyl)thiazole-5-carbonitrile]",38000 ng·h/mL,28.4%,7040 ng/mL,200 to 800 nM,200 to 800 nM,≤ 20 nM
"CCc1nc2ccc(-c3cnc(N4CCC(C(=O)N5CCCC5)CC4)nc3)cn2c1N(C)c1nc(-c2ccc(F)cc2)c(C#N)s1 [Compound 115, 2-((2-ethyl-6-(2-(4-(pyrrolidine-1-carbonyl)piperidin-1-yl)pyrimidin-5-yl)imidazo [1,2-a]pyridin-3-yl)(methyl)amino)-4-(4-fluorophenyl)thiazole-5-carbonitrile]",37100 ng·h/mL,48.5%,,200 to 800 nM,≤ 200 nM,≤ 20 nM
"CCc1nc2ccc(-c3ccc(N4CCC(C(=O)N5CCC(O)CC5)CC4)nc3)cn2c1N(C)c1nc(-c2ccc(F)cc2)c(C#N)s1 [Compound 119, 2-((2-ethyl-6-(6-(4-(4-hydroxypiperidine-1-carbonyl)piperidin-1-yl)pyridin-3-yl)imidazo[1,2-a]pyridin-3-yl)(methyl)amino)-4-(4-fluorophenyl)thiazole-5-carbonitrile]",57100 ng·h/mL,33.1%,7680 ng/mL,200 to 800 nM,200 to 800 nM,≤ 20 nM
"CCc1nc2ccc(-c3ccc(N4CCC(C(=O)N5CC(O)C5)CC4)nc3)cn2c1N(C)c1nc(-c2ccc(F)cc2)c(C#N)s1 [Compound 120, 2-((2-ethyl-6-(6-(4-(3-hydroxyazetidine-1-carbonyl)piperidin-1-yl)pyridin-3-yl)imidazo[1,2-a]pyridin-3-yl)(methyl)amino)-4-(4-fluorophenyl) thiazole-5-carbonitrile]",50500 ng·h/mL,40.8%,8470 ng/mL,200 to 800 nM,200 to 800 nM,≤ 20 nM
"CCc1nc2ccc(-c3cnc(N4CCC(C(=O)N5CCC5)CC4)nc3)cn2c1N(C)c1nc(-c2ccc(F)cc2)c(C#N)s1 [Compound 123, 2-((6-(2-(4-(azetidine-1-carbonyl)piperidin-1-yl)pyrimidin-5-yl)-2-ethylimidazo[1,2-a]pyridin-3-yl)(methyl)amino)-4-(4-fluorophenyl)thiazole-5-carbonitrile]",61000 ng·h/mL,55.7%,7750 ng/mL,200 to 800 nM,200 to 800 nM,≤ 20 nM
"CCc1nc2ccc(-c3ccc(N4CC(C(=O)N5CCC5)C4)nc3)cn2c1N(C)c1nc(-c2ccc(F)cc2)c(C#N)s1 [Compound 124, 2-((6-(6-(3-(azetidine-1-carbonyl)azetidin-1-yl)pyridin-3-yl)-2-ethylimidazo[1,2-a]pyridin-3-yl)(methyl)amino)-4-(4-fluorophenyl)thiazole-5-carbonitrile]",13100 ng·h/mL,40%,3820 ng/mL,200 to 800 nM,200 to 800 nM,20 to 200 nM
"CCc1nc2ccc(-c3ccc(N4CCC(C(=O)N5CCOCC5)CC4)nc3)cn2c1N(C)c1nc(-c2ccc(F)cc2)c(C#N)s1 [Compound 126, 2-((2-ethyl-6-(6-(4-(morpholine-4-carbonyl)piperidin-1-yl)pyridin-3-yl)imidazo[1,2-a]pyridin-3-yl)(methyl)amino)-4-(4-fluorophenyl)thiazole-5-carbonitrile]",38300 ng·h/mL,59.2%,5580 ng/mL,200 to 800 nM,≤ 200 nM,≤ 20 nM
